Assay results taken from patent US11779620B2 (priority 2020, dated 2023).

What was measured:
[1] = tested on: human PBMC cultures; assay: Induction of CD69 activation marker on immune cell subsets in PBMC cultures (Trametes versicolor study); format: cell-based; settings: 24 h, positive controls LPS 10 ng/mL, IL-2 100 IU/mL, mean±SD
[2] = tested on: human PBMC cultures; assay: Cytokine, chemokine and growth factor levels in PBMC culture supernatants (medicinal mushroom blend study); format: cell-based; settings: LPS-treated control cultures (10 ng/mL), 24 h, mean±SD
Protocol: The powder was handled in the following manner, using pyrogen-free disposables: A 100 mg/mL suspension was prepared in phosphate-buffered saline (PBS) and allowed to rehydrate and extract aqueous compounds for 1 hour at 20° C. under gentle agitation. The suspension was centrifuged at 400 g for 10 minutes, and the aqueous fraction harvested. Ethanol (95%) was added to the pellet and vortexed, and extraction of non-aqueous, ethanol-soluble compounds allowed for 1 hour at 20° C. under gentle agitation. The suspension was centrifuged at 400 g for 10 minutes, and the ethanol fraction harvested. The remaining solid pellet was resuspended in PBS. The aqueous and ethanol fractions were filtered through a 0.22-micron syringe filter before adding to cell cultures. The solid fraction was passed through homogenization spin columns (QIAshredder, Qiagen, […].), but were not filtered through a 0.22-micron filter. From each fraction, serial dilutions were made in pyrogen-free physiological saline. See also FIG. 9.
Peripheral venous blood was drawn from three healthy human donors upon written informed consent, as approval by the Sky Lakes Medical Center Institutional Review Board, Federalwide Assurance 2603. The blood was drawn into heparin vacutainer vials, and the peripheral blood mononuclear cells (PBMC) isolated using Lympholyte Poly by centrifugation for 35 minutes at 400×g. The PBMC were washed twice in PBS, counted, and the density adjusted to establish cultures with a cell density of 10^6/mL, using Roswell Park Memorial Institute (RPMI) 1640 medium containing penicillin, streptomycin, and fetal bovine serum.
The highly inflammatory lipopolysaccharide (LPS) from Salmonella enterica was used as a positive control for immune-cell activation. Serial dilutions of products or LPS (10 ng/mL) were added to cultures at a volume of 20 μL, and cultures were then incubated at 37° C., 5% CO2 for 24 hours. […] Untreated negative control cultures consisted of PBMC exposed to phosphate-buffered saline in the absence of test products. All treatments, including each dose of test product and each positive and negative control, were tested in triplicate. After 24 hours, cells were transferred to V-bottom microtiter plates, washed in PBS containing bovine serum albumin and sodium azide, and stained for 10 minutes with fluorochrome-labeled anti-CD3, anti-CD56, and anti-CD69 monoclonal antibodies at the recommended concentration. PBMC were then fixed in formalin. The fluorescence intensities for CD3, CD56, and CD69 were measured by flow cytometry, using an Attune acoustic-focusing flow cytometer (Thermo Fisher Scientific, Waltham, Mass., USA). Data analysis utilized gating on forward and side scatter to evaluate CD69 expression on lymphocyte versus monocyte/macrophage subsets. The lymphocyte subpopulation was further analyzed for CD69 expression on CD3−CD56+ NK cells, CD3+CD56+ NKT cells, CD3+CD56− T cells, and non-NK non-T lymphocytes.
After 24 hours of incubation, after transfer to V-bottom microtiter plates and before cells were stained for flow cytometry analysis, the culture supernatants were harvested from the PBMC cultures described above. Levels of cytokines, chemokines, and growth factors were quantified using Bio-Plex protein arrays (Bio-Rad Laboratories Inc., Hercules Calif., USA) and utilizing xMAP technology (Luminex, Austin, Tex., USA).

lipopolysaccharide [LPS]
CD69 percent change compared to untreated control cultures, NK cells [1]: 114±10%
CD69 percent change compared to untreated control cultures, NKT cells [1]: 54±8.3%
CD69 percent change compared to untreated control cultures, T lymphocytes [1]: 19±2.1%
G-CSF level [2]: 1,458±58 pg/mL
IFN-γ level [2]: 71 ± 2 pg/mL
IL-1ra level [2]: 8,134±473 pg/mL
IL-1β level [2]: 772 ± 28 pg/mL
IL-10 level [2]: 301 ± 15 pg/mL
MCP-1 level [2]: 2,052±35 pg/mL
MIP-1α level [2]: 2,116±0 pg/mL
MIP-1β level [2]: 6,497±814 pg/mL
TNF-α level [2]: 7,073±185 pg/mL
VEGF level [2]: 421 ± 17 pg/mL
bFGF level [2]: 221 ± 8 pg/mL
